# What was measured:
# Mouse B16 melanoma cells [1] = assay: Melanin production inhibition test; assay type: cell-based; conditions: 3 days, ratio to solvent-only group
# Description: (§1) The melanin production inhibitory effect and the cytotoxicity was studied according to the following method.
# (§2) (1) Inoculation of Cells and Addition of Test Substances
# (§3) Mouse B16 melanoma cells were inoculated in a six well plate at 100,000 cells/well. The next day, test substance solutions (solvent: dimethylsulfoxide) were added thereto and then subjected to the melanin production inhibition test and cytotoxicity test.
# (3) Melanin Production Inhibition Test
# Three days after the addition of the test substance solution, the medium was removed by aspiration. The cells were washed with a buffer (50 mM phosphate buffer, pH6.8), and then lysed by addition of 1M NaOH to measure an absorbance at 475 nm. Using the value thus measured as a relative value of the melanin amount, a ratio of the melanin amount (%) of the test substance-added group to the test substance-absent group (group in which only the solvent was added) was calculated. The lower the ratio of the melanin amount, the higher the melanin production-inhibitory effect.
# Mouse B16 melanoma cells [2] = assay: Cell proliferation test (cytotoxicity test, Alamar Blue); assay type: cell-based; conditions: 3 days, ratio to solvent-only group
# Description: as §1, §2, §3
# (2) Cell Proliferation Test
# Three days after the addition of the test substance solution, the medium was removed by aspiration. Then 1 mL of EMEM medium containing 10% Alamar Blue solution was added, and a reaction was allowed to proceed at 37° C. After 30 minutes, 100 μL of the reaction mixture was transferred to a 96 well plate and fluorescence was measured at an excitation wavelength of 544 nm and a measurement wavelength of 590 nm. Using the value thus measured as a relative value of cell count, a ratio of the cell count (% cell count) of the test substance-added group to the test substance-absent group (group in which only the solvent was added) was calculated. The higher the % cell count, the lower the cytotoxicity.
# [3] = final concentration of test compound 0.9 μM
# [4] = final concentration of test compound 8.5 μM
# [5] = final concentration of test compound 28 μM
# [6] = final concentration of test compound 2.2 μM
# [7] = final concentration of test compound 22 μM
# [8] = final concentration of test compound 220 μM
# [9] = final concentration of test compound 1.0 μM
# [10] = final concentration of test compound 10 μM
# [11] = final concentration of test compound 33 μM
# [12] = final concentration of test compound 9.6 μM
# [13] = final concentration of test compound 32 μM
# [14] = final concentration of test compound 2.0 μM
# [15] = final concentration of test compound 6.6 μM
# [16] = final concentration of test compound 66 μM
# [17] = final concentration of test compound 1.6 μM
# [18] = final concentration of test compound 16 μM
# [19] = final concentration of test compound 52 μM
compound,measurement,setting,value
"O=P(O)(O)Oc1ccc(C2CCCCC2)c(OP(=O)(O)O)c1 [Compound 3, 1,3-bisphosphonooxy-4-cyclohexylbenzene]",Melanin Amount Ratio (%),Mouse B16 melanoma cells [1]; [3],48%
same,Melanin Amount Ratio (%),Mouse B16 melanoma cells [1]; [4],20%
same,Melanin Amount Ratio (%),Mouse B16 melanoma cells [1]; [5],15%
same,Cell Count (%),Mouse B16 melanoma cells [2]; [3],102%
same,Cell Count (%),Mouse B16 melanoma cells [2]; [4],105%
same,Cell Count (%),Mouse B16 melanoma cells [2]; [5],101%
"CCc1ccc(O)cc1O [Comparative Compound 1, 4-ethylresorcinol]",Melanin Amount Ratio (%),Mouse B16 melanoma cells [1]; [6],69%
same,Melanin Amount Ratio (%),Mouse B16 melanoma cells [1]; [7],24%
same,Melanin Amount Ratio (%),Mouse B16 melanoma cells [1]; [8],16%
same,Cell Count (%),Mouse B16 melanoma cells [2]; [6],101%
same,Cell Count (%),Mouse B16 melanoma cells [2]; [7],102%
same,Cell Count (%),Mouse B16 melanoma cells [2]; [8],93%
"CCc1ccc(OP(=O)(O)O)cc1OP(=O)(O)O [Compound 1, 1,3-bisphosphonooxy-4-ethylbenzene]",Melanin Amount Ratio (%),Mouse B16 melanoma cells [1]; [9],62%
same,Melanin Amount Ratio (%),Mouse B16 melanoma cells [1]; [10],25%
same,Melanin Amount Ratio (%),Mouse B16 melanoma cells [1]; [11],16%
same,Cell Count (%),Mouse B16 melanoma cells [2]; [9],101%
same,Cell Count (%),Mouse B16 melanoma cells [2]; [10],108%
same,Cell Count (%),Mouse B16 melanoma cells [2]; [11],113%
"CC(C)c1ccc(OP(=O)(O)O)cc1OP(=O)(O)O [Compound 2, 1,3-bisphosphonooxy-4-isopropylbenzene]",Melanin Amount Ratio (%),Mouse B16 melanoma cells [1]; [9],47%
same,Melanin Amount Ratio (%),Mouse B16 melanoma cells [1]; [12],16%
same,Melanin Amount Ratio (%),Mouse B16 melanoma cells [1]; [13],13%
same,Cell Count (%),Mouse B16 melanoma cells [2]; [9],99%
same,Cell Count (%),Mouse B16 melanoma cells [2]; [12],95%
same,Cell Count (%),Mouse B16 melanoma cells [2]; [13],103%
"CC(C)c1ccc(O)cc1O [Comparative Compound 2, 4-isopropylresorcinol]",Melanin Amount Ratio (%),Mouse B16 melanoma cells [1]; [14],32%
same,Melanin Amount Ratio (%),Mouse B16 melanoma cells [1]; [15],17%
same,Melanin Amount Ratio (%),Mouse B16 melanoma cells [1]; [16],12%
same,Cell Count (%),Mouse B16 melanoma cells [2]; [14],99%
same,Cell Count (%),Mouse B16 melanoma cells [2]; [15],97%
same,Cell Count (%),Mouse B16 melanoma cells [2]; [16],98%
"Oc1ccc(C2CCCCC2)c(O)c1 [Comparative Compound 3, 4-cyclohexylresorcinol]",Melanin Amount Ratio (%),Mouse B16 melanoma cells [1]; [17],43%
same,Melanin Amount Ratio (%),Mouse B16 melanoma cells [1]; [18],22%
same,Melanin Amount Ratio (%),Mouse B16 melanoma cells [1]; [19],17%
same,Cell Count (%),Mouse B16 melanoma cells [2]; [17],99%
same,Cell Count (%),Mouse B16 melanoma cells [2]; [18],98%
same,Cell Count (%),Mouse B16 melanoma cells [2]; [19],76%
